Where no end group is shown, it is not given here.

For this test, the system named is EpCAM. Nature of the test: Spot phage ELISA, EpCAM. The following applies: spot phage ELISA signal-to-noise on EpCAM. Format: binding, human.
Regarding “GCPRILMRCKQDSDLSSWLCLCCYDSVC (disulfide (positions not given here)) [EpCAM EET I-II 37]”, the S/N is 9.5. In turn, “GPTQSHYGQCGGQGYIGAIMCSGTTCQMRSLPASQCLPGAS (disulfide (positions not given here)) [EpCAM CBD 20]” came in with a S/N of 17.5. The figure for “GCHRWGILCKQDSDCLAGCVCWQQGQCG (disulfide (positions not given here)) [EpCAM EET I-II 35]” is 15. On to “GPTQSHYGQCGGIGYMGAIQCSGTTCQPIFLRNSQCLPGAS (disulfide (positions not given here)) [EpCAM CBD 6]”, for which the S/N is reported as 22.6. The figure for “GPTQSHYGQCGGXGYNGXIVCSGTTCQYXRKSKSQCLPGAS (disulfide) [EpCAM CBD 61]” is 8.8. To “GPTQSHYGQCGGHGYQGIMRCSGTTCQQVYMRSSQCLPGAS (disulfide (positions not given here)) [EpCAM CBD 34]” belongs 15.0.

In turn, “GPTQSHYGQCGGKGYPGYIVCSGTTCQMVNQSHSQCLPGAS (disulfide (positions not given here)) [EpCAM CBD 55]” came in with a S/N of 9.4.

On to “GCPRILMRCKQDSELSSWLCLCCSGSLC (disulfide (positions not given here)) [EpCAM EET I-II 26]”, for which the S/N is on record as 18.3. To “GPTQSHYGQCGGFGYQGAVVCSGTTCQFTHLGHSQCLPGAS (disulfide (positions not given here)) [EpCAM CBD 88]” belongs 5.9. To “GPTQSHYGQCGGHGYVGMIACSGTTCQYLQKVPSQCLPGAS (disulfide (positions not given here)) [EpCAM CBD 13]” belongs 19.5; to “GPTQSHYGQCGGRGYVGGIKCSGTTCQOVHAHPSQCLPGAS (disulfide) [EpCAM CBD 72]”, 8.0; to “GPTQSHYGQCGGLGYHGAIMCSGTTCQYAPIVTSQCLPGAS (disulfide (positions not given here)) [EpCAM CBD 52]”, 9.8. The figure for “GPTQSHYGQCGGSGYPGAVVCSGTTCQWRQVPRSQCLPGAS (disulfide (positions not given here)) [EpCAM CBD 18]” is 18.3. For “GPTQSHYGQCGGQGYHGAILCSGTTCQYTMISRSQCLPGAS (disulfide (positions not given here)) [EpCAM CBD 5]”, the S/N was found to be 22.8. The figure for “GPTQSHYGQCGGRGYFGALRCSGTTCQYVTMIESQCLPGAS (disulfide (positions not given here)) [EpCAM CBD 80]” is 7.3. The figure for “GPTQSHYGQCGGMGYQGMIKCSGTTCQYVARQASQCLPGAS (disulfide (positions not given here)) [EpCAM CBD 47]” is 10.5; for “GCPRILMRCKQDSDCQAVCG (disulfide (positions not given here)) [EpCAM EET I-II 27]” it is 18.1; for “GCRRMGVRCKQDSDCLAGCVCWHDPQCG (disulfide (positions not given here)) [EpCAM EET I-II 3]” it is 23. To “GPTQSHYGQCGGRGYKGAIVCSGTTCQVAQMYQSQCLPGAS (disulfide (positions not given here)) [EpCAM CBD 86]” belongs 6.6. “GPTQSHYGQCGGPGYTGVIKCSGTTCQFVNLPRSQCLPGAS (disulfide (positions not given here)) [EpCAM CBD 51]” gave a S/N of 9.8. The figure for “GPTQSVIGPCGGIGYVGGRYCSGTTCQMPTSYRSQCLPGAS (disulfide (positions not given here)) [EpCAM CBD 35]” is 14.4; for “GCRNTMVRCKQDSDCLAGCVCYFDPSCG (disulfide (positions not given here)) [EpCAM EET I-II 33]” it is 15.8.

In turn, “GPTQSHYGQCGGRGYFGAIICSGTTCQYVQKHMSQCLPGAS (disulfide (positions not given here)) [EpCAM CBD 9]” returned a S/N of 20.9. To “GPTQSHYGQCGGYGYPGLACSGTTCQYTYYMRSQCLPGAS (disulfide (positions not given here)) [EpCAM CBD 71]” belongs 8.3. The figure for “GCPRILMRCKQDSDCLAGCGLSSGLVVW (disulfide (positions not given here)) [EpCAM EET I-II 1]” is 24. The figure for “GCPRILMRCKQDSDCMPVCG (disulfide (positions not given here)) [EpCAM EET I-II 4]” is 23. Sequence “GPTQSHYGQCGGGGYYGAISCSGTTCQPVRLIRSQCLPGAS (disulfide (positions not given here)) [EpCAM CBD 37]” had a S/N of 13.0. With “GCPRILMRCKQDSELSSWLCLCCSGLVC (disulfide (positions not given here)) [EpCAM EET I-II 14]”, the S/N was determined as 20.8. The figure for “GPTQSHYGQCGGHGYMGSIKCSGTTCQYVEIVPSQCLPGAS (disulfide (positions not given here)) [EpCAM CBD 66]” is 8.6; for “GPTQSHYGQCGGRGYVGALMCSGTTCQYIAKPVSQCLPGAS (disulfide (positions not given here)) [EpCAM CBD 4]” it is 23.5. “GPTQSHYGQCGGLGYAGAIVCSGTTCQYTIRNPSQCLPGAS (disulfide (positions not given here)) [EpCAM CBD 65]” registered a S/N of 8.6. Turning to “GPTQSHYGQCGGVGYVGSILCSGTTCQFTKVRTSQCLPGAS (disulfide (positions not given here)) [EpCAM CBD 50]”, the S/N amounted to 9.9. To “GPTQSHYGQCGGMGYHGAISCSGTTCQPIIFPVSQCLPGAS (disulfide (positions not given here)) [EpCAM CBD 19]” belongs 17.9; to “GPTQSHYGQCGGVGYHGAIQCSGTTCQEVKMTRSQCLPGAS (disulfide (positions not given here)) [EpCAM CBD 3]”, 23.5. The figure for “GCPRILMRCKQDSDCQWFCG (disulfide (positions not given here)) [EpCAM EET I-II 12]” is 20.9.

Regarding “GPTQSHYGQCGGKGYHGFIRCSGTTCQVVYPEKSQCLPGAS (disulfide (positions not given here)) [EpCAM CBD 58]”, the S/N stood at 9.2. For the sequence “GCPRILMRCKQDSDCLAGCVLNGLVSWYT (disulfide (positions not given here)) [EpCAM EET I-II 38]”, the S/N came to 7.1. The figure for “GPTQSIYGVCGGIGYVGGRYCSGTTCQIPEKYKSQCLPGAS (disulfide (positions not given here)) [EpCAM CBD 45]” is 11.1. “GPTQSHYGQCGGQGYHGMIRCSGTTCQWVPMVRSQCLPGAS (disulfide (positions not given here)) [EpCAM CBD 39]” registered a S/N of 12.6. The figure for “GPTQSHYGQCGGRGYWGMAICSGTTCQAQTRMISQCLPGAS (disulfide (positions not given here)) [EpCAM CBD 42]” is 11.4. The figure for “GPTQSHYGQCGGRGYPGAMVCSGTTCQWHQPLRSQCLPGAS (disulfide (positions not given here)) [EpCAM CBD 60]” is 8.9; for “GPTQSHYGQCGGKGYQGAMKCSGTTCQYIFFPTSQCLPGAS (disulfide (positions not given here)) [EpCAM CBD 64]” it is 8.6.

For the origin of these results see paper PMC10977697 (PLOS ONE, 2024).
